In patent US20090143396A1, “Sulfonyl-Substituted Aryl Compounds as Modulators of Peroxisome Proliferator Activated Receptors” (priority 2005, published 2009):

Experiments:
Format in all cases: cell-based, murine and human
Details in all cases: GAL4 chimeric receptor, 20-24 hours treatment
[1] = molecular target: T1, PPAR-alpha (UniProt Q07869); test: Transient transfection transactivation assay in CV-1 cells, GAL4-PPAR-alpha LBD chimera, luciferase reporter
T1 sequence (Q07869 1-468): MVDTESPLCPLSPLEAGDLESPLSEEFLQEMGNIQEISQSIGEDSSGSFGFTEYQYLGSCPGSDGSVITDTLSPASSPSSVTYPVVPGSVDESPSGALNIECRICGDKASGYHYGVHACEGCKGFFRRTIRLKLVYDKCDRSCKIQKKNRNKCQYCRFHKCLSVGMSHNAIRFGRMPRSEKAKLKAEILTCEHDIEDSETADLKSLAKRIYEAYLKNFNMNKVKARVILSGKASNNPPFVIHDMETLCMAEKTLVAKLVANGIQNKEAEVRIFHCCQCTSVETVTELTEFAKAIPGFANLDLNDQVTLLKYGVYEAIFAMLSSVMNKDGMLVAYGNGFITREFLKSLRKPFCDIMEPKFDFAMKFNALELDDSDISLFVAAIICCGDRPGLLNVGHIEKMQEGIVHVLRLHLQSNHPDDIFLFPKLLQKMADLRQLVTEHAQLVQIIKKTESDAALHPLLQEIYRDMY
Text: (§1) Compounds may be screened for functional potency in transient transfection assays in CV-1 cells for their ability to activate the PPAR subtypes (transactivation assay). A previously established chimeric receptor system was utilized to allow comparison of the relative transcriptional activity of the receptor subtypes on the same synthetic response element and to prevent endogenous receptor activation from complicating the interpretation of results. See, for example, Lehmann, J. M.; Moore, L. B.; Smith-Oliver, T. A; Wilkinson, W. O.; Willson, T. M.; Kliewer, S. A., An antidiabetic thiazolidinedione is a high affinity ligand for peroxisome proliferator-activated receptor […], J. Biol. Chem., 1995, 270, 12953-6. The ligand binding domains for murine and human PPAR-alpha, PPAR-gamma, and PPAR-delta are each fused to the yeast transcription factor GAL4 DNA binding domain. CV-1 cells were transiently transfected with expression vectors for the respective PPAR chimera along with a reporter construct containing four or five copies of the GAL4 DNA binding site driving expression of luciferase. After 8-16 h, the cells are replated into multi-well assay plates and the media is exchanged to phenol-red free DME medium supplemented with 5% delipidated calf serum. 4 hours after replating, cells were treated with either compounds or 1% DMSO for 20-24 hours. Luciferase activity was then assayed with Britelite (Perkin Elmer) following the manufacturer's protocol and measured with either the Perl in Elmer Viewlux or Molecular Devices Acquest (see, for example, Kliewer, S. A., et. al. Cell 1995, 83, 813-819). Rosiglitazone is used as a positive control in the […] assay. Wy-14643 and GW7647 is used as a positive control in the […] assay. GW501516 is used as the positive control in the PPARδ assay.
(§2) Compounds of Examples 1-10 were assayed to measure their biological activity with respect to their EC50 values and efficacy for modulating PPAR-alpha, PPAR-gamma, and PPAR-delta as set forth in Table 1.

[2] = molecular target: T2, PPAR-delta (UniProt Q03181); test: Transient transfection transactivation assay in CV-1 cells, GAL4-PPAR-delta LBD chimera, luciferase reporter
T2 sequence (Q03181 1-441): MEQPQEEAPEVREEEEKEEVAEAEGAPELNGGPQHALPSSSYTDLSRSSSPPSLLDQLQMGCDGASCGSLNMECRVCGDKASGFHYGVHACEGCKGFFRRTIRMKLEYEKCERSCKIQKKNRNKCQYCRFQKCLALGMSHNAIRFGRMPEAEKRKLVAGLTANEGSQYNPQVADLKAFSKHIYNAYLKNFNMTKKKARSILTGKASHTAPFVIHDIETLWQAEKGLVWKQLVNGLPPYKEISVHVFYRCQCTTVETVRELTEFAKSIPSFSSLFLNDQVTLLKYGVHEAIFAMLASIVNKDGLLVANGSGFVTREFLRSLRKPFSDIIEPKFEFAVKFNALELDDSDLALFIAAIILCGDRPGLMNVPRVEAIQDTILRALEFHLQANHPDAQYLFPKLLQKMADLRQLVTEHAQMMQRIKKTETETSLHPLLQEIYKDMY
Text: as §1, §2

[3] = molecular target: T3, PPAR-gamma (UniProt P37231); test: Transient transfection transactivation assay in CV-1 cells, GAL4-PPAR-gamma LBD chimera, luciferase reporter
T3 sequence (P37231 1-505): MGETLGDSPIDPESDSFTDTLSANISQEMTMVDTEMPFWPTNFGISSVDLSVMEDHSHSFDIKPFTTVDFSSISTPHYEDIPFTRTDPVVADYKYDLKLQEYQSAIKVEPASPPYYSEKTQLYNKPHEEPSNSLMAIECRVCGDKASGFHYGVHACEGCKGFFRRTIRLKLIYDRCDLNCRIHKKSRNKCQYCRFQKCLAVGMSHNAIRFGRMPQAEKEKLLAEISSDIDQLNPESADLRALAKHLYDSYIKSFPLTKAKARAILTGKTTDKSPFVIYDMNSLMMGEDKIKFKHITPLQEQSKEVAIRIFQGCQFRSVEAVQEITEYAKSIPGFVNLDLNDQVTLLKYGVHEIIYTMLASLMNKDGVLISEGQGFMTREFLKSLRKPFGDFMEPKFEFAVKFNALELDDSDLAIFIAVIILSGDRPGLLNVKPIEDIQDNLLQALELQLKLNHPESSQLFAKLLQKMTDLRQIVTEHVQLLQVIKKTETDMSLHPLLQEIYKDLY
Text: as §1, §2

EC50 [1] [µM]	EC50 [2] [µM]	EC50 [3] [µM]	SMILES
< 5	< 5	< 5	Cc1ccc(S(=O)(=O)N2CCN(Cc3ccc(OC(F)(F)F)cc3)CC2)cc1CC(=O)O [Example 3, {2-Methyl-5-[4-(4-trifluoromethoxy-benzyl)-piperazine-1-sulfonyl]-phenyl}-acetic acid]
< 5	< 5	5 to 100	Cc1ccc(S(=O)(=O)N2[C@H](C)CN(Cc3ccc(C(F)(F)F)cc3)C[C@@H]2C)cc1CC(=O)O [Example 2, {5-[2,6-Dimethyl-4-(4-trifluoromethyl-benzyl)-piperazine-1-sulfonyl]-2-methyl-phenyl}-acetic acid]
< 5	< 5	> 100	Cc1ccc(S(=O)(=O)N2[C@H](C)CN(Cc3ccc(OC(F)(F)F)cc3)C[C@@H]2C)cc1CC(=O)O [Example 1, {5-[2,6-Dimethyl-4-(4-trifluoromethoxy-benzyl)-piperazine-1-sulfonyl]-2-methyl-phenyl}-acetic acid]
< 5	< 5	> 100	Cc1ccc(S(=O)(=O)N2[C@H](C)CN(Cc3ccc(Cl)c(Cl)c3)C[C@@H]2C)cc1CC(=O)O [Example 7, {5-[4-(3,4-Dichloro-benzyl)-2,6-dimethyl-piperazine-1-sulfonyl]-2-methyl-phenyl}-acetic acid]
5 to 100	< 5	> 100	Cc1cc(CC(=O)O)cc(S(=O)(=O)N2[C@H](C)CN(Cc3ccc(OC(F)(F)F)cc3)C[C@@H]2C)c1 [Example 5, {3-[2,6-Dimethyl-4-(4-trifluoromethoxy-benzyl)-piperazine-1-sulfonyl]-5-methyl-phenyl}-acetic acid]
< 5	< 5	< 5	C#Cc1cc(CC(=O)O)cc(S(=O)(=O)N2CCN(Cc3cccc(OC(F)(F)F)c3)CC2)c1 [Example 9, 2-{3-Ethynyl-5-[4-(3-trifluoromethoxybenzyl)piperazine-1-ylsulfonyl]phenyl}acetic acid]
5 to 100	< 5	< 5	C[C@@H]1CN(Cc2ccc(OC(F)(F)F)cc2)C[C@H](C)N1S(=O)(=O)c1cccc(CC(=O)O)c1 [Example 6, {3-[2,6-Dimethyl-4-(4-trifluoromethoxy-benzyl)-piperazine-1-sulfonyl]-phenyl}-acetic acid]
< 5	< 5	< 5	Cc1ccc(S(=O)(=O)N2CCN(Cc3ccc(C(F)(F)F)cc3)CC2)cc1CC(=O)O [Example 4, {2-Methyl-5-[4-(4-trifluoromethyl-benzyl)-piperazine-1-sulfonyl]-phenyl}-acetic acid]
> 100	< 5	> 100	Cc1ccc(S(=O)(=O)N2[C@H](C)CN(C(=O)Cc3ccc(OC(F)(F)F)cc3)C[C@@H]2C)cc1CC(=O)O [Example 10, 2-(5-((2R,6S)-2,6-dimethyl-4-(2-(4-(trifluoromethoxy)phenyl)acetyl)piperazin-1-ylsulfonyl)-2-methylphenyl)acetic acid]
< 5	< 5	< 5	C#Cc1cc(CC(=O)O)cc(S(=O)(=O)N2CCN(Cc3ccc(OC(F)(F)F)cc3)CC2)c1 [Example 8, 2-{3-Ethynyl-5-[-4-(4-trifluoromethoxybenzyl)piperazine-1-ylsulfonyl]phenyl}acetic acid]
